Measurements as given in patent US11884676B2, “Substituted pyrimido[1,2-b]pyridazines as positive allosteric modulators of the muscarinic acetylcholine receptor M4” (Vanderbilt University, priority 2020, dated 2024).

Key:
[1] = human, in vivo; cited from earlier work
[2] = Alzheimer's disease patients; Bodick et al. 1997; cited from earlier work
[3] = cited from earlier work
Human M4 = biological target: T1, Human M4 (Homo sapiens, UniProt P08173); assay: mAChR M4 cell-based functional assay (calcium flux, PAM mode); conditions: hM4-Gqi5 CHO-K1 cells; for Emax at 30 µM: CHO-K1, % ACh maximum at 30 μM; for EC50: concentration-dependent increase in the EC20 acetylcholine response
T1 construct: expressed in transfected cells
T1 sequence (P08173 1-479): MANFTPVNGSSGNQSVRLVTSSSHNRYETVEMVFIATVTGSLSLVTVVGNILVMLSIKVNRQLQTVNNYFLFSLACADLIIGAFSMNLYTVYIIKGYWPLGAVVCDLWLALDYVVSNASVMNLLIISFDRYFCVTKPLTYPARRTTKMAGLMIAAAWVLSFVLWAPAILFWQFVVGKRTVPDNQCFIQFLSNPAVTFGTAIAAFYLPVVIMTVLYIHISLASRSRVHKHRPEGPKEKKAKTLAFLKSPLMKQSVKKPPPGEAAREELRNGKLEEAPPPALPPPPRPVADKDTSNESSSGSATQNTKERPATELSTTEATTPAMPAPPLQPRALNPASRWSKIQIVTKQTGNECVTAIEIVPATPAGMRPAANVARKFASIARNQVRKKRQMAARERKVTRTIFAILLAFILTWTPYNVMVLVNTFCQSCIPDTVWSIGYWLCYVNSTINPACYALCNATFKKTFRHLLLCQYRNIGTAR
Method in brief: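 CHO-K1 cells stably co-expressing human M4 and chimeric Gqi5, Fluo-4 loaded; compound added first (11-point, 1:3 CRC), then EC20 acetylcholine at 144 s and EC80 at 230 s. PAM activity read on FDSS as concentration-dependent increase of EC20 ACh calcium response; EC50 and Emax from four-parameter logistic fit.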

| SMILES | Emax at 30 µM (Human M4) | EC50 (Human M4) | also measured |
| --- | --- | --- | --- |
| Nc1c2c(nc3ccccc13)CCCC2 [tacrine] |  |  | elevated liver transaminases observed in patients [1]: about 30 % of patients |
| CCCCCCOc1nsnc1C1=CCCN(C)C1 [xanomeline] |  |  | psychotic behavioral symptoms such as delusions, suspiciousness, vocal outbursts, and hallucinations [2]: reduce psychotic behavioral symptoms; activity in animal models with similar profiles to known antipsychotic drugs ([3]; Bymaster et al., Shannon et al.): active; catalepsy ([3]; animal models): without causing catalepsy |
| [2H]C1(Oc2ccc3c(c2)OC([2H])([2H])C([2H])([2H])O3)CCN(c2nn3c(=O)cc(C)nc3c(C)c2C)CC1 [Compound 94, 7-(4-((2,3-dihydrobenzo[b][1,4]dioxin-6-yl-2,2,3,3-d4)oxy)piperidin-1-yl-4-d)-2,8,9-trimethyl-4H-pyrimido[1,2-b]pyridazin-4-one] | 84% | 30 nM |  |
| Cc1c(N2CC[C@H](Oc3ccc4c(c3)OCCO4)C[C@H]2C)nn2c(=O)ccnc2c1C [Compound 134, 7-((2R,4S)-4-((2,3-dihydrobenzo[b][1,4]dioxin-6-yl)oxy)-2-methylpiperidin-1-yl)-8,9-dimethyl-4H-pyrimido[1,2-b]pyridazin-4-one] | 105% | 25 nM |  |
| [2H]C1([2H])Oc2cc(O[C@H]3CCN(c4nn5c(=O)ccnc5cc4C)[C@H](C)C3)cc(F)c2OC1([2H])[2H] [Compound 130, 7-((2R,4S)-4-((8-fluoro-2,3-dihydrobenzo[b][1,4]dioxin-6-yl-2,2,3,3-d4)oxy)-2-methylpiperidin-1-yl)-8-methyl-4H-pyrimido[1,2-b]pyridazin-4-one] | 116% | 160 nM |  |
